According to patent EP1655289A1, “Quinazoline derivatives, process for their preparation, their use as antimitotics and pharmaceutical compositions comprising said derivatives” (EMBL, priority 2004, dated 2006):
Read-outs that look alike come from different tables or passages of the source.

Columns and labels:
[1] = tested on: Xenopus egg extract; assay: Spindle assembly in Xenopus egg extracts; set-up: species or system Xenopus laevis
Method: Cytostatic factor (CSF)-arrested Xenopus laevis egg extracts were prepared as described previously. Spindle assembly experiments were performed in cycled extracts with sperm nuclei and tetramethylrhodamine labelled tubulin as described. 1 % (v/v) (or less) inhibitor dissolved in DMSO was added to the extract prior to spindle assembly. As control 1% DMSO was added to the extract. Spindles were fixed and centrifuged onto coverslips. The DNA was stained with DAPI. Structures were then visualized by epi-fluorescence microscopy (Zeiss Axiovert 135 equipped with a Roper CoolSnap HQ camera). Spindles and aberrant microtubule structures were then counted.

[2] = molecular target: T1, Eg5 (Xenopus laevis, UniProt P28025); assay: Microtubule-stimulated ATPase activity of Eg5 (EnzChek Phosphate Assay), IC50 determination; type: biochemical; conditions: for potency as inhibitor of Eg5 compared to monastrol: ratio of IC50 values versus monastrol
T1 construct: Xenopus laevis Eg5 corresponding to amino acids 1 to 487; made in house; host or cells: E. coli M15(pREP4)
T1 sequence (P28025 1-487): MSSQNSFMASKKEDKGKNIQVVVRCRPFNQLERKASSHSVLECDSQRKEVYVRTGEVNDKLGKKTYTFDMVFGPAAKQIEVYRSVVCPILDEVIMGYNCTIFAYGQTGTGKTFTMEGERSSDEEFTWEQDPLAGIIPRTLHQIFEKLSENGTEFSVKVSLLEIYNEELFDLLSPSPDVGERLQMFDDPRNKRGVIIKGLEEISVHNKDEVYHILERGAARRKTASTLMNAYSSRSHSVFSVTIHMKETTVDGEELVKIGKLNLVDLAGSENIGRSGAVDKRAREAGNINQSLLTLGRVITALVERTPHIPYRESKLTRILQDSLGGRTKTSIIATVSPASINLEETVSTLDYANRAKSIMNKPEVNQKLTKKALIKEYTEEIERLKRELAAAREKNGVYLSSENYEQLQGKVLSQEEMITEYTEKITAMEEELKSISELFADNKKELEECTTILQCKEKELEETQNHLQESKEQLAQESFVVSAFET
Method: The protein was expressed in E. coli M15(pREP4) for 5 h at 18 °C in LB containing 1 mM isopropylthio-β-D-galactopyranoside (IPTG), 100 µg/ml ampicillin, 25 µg/ml kanamycin, and 2% (v/v) ethanol. The harvested cells were lysed in buffer A (50 mM KPi, 100 mM NaCl, 0.1 mM MgATP protease inhibitors (Roche), pH 7.0) with 5 mM mercaptoethanol (ME). The clarified lysate was loaded onto a HIS-Select Cobalt Affi Gel column (Sigma), washed with buffer A supplemented with 10 mM imidazole, 2 mM ME, 10 % (w/v) glycerol, and eluted with 150 mM imidazole, 50 mM KCI, 10 % (w/v) glycerol, 10 mM ME, pH 7.3. The buffer was exchanged to 50 mM 3-(N-morpholino)propanesulfonic acid/KOH, 50 mM KCI, 1 mM MgCl2, 1 mM EGTA, 10 mM ME, 20 % (w/v) glycerol, pH 7.0 by dialysis. The protein concentration was adjusted to 2 mg/ml (measured by a Bradford assay using bovine serum albumin (BSA) as standard). Eg5487H was frozen in liquid ethane and stored in liquid nitrogen.
Polymerized microtubules were then stabilized by addition of 1 µl 10 mM paclitaxel (Sigma) in DMSO and incubated at 37 °C for another 20 minutes. The suspension was centrifuged at 70000 rpm at 30 °C for 30 minutes in a TLA100 rotor (Beckman). The resulting microtubule pellet was resuspended in 60 µl assay buffer (10 mM imidazole/acetate, 5 mM K-acetate, 2 mM EGTA and 4 mM Mg-acetate, pH 6.8.) supplemented with 20 µM paclitaxel at 37 °C. This microtubule suspension was stored at room temperature. The final concentration was 80 µM polymerized tubulin as determined by Bradford using BSA as a standard.
Final concentrations were 40 nM Eg5487H, 4 µM microtubules (tubulin dimer concentration as determined by Bradford using BSA as standard), and 1 mM MgATP. The ATPase activity was measured as an increase of absorbance at 365 nm within 2 h at room temperature. 1 % (v/v) inhibitor in DMSO at different concentrations (or 1 % (v/v) DMSO as a control) was added at the start of the experiment. At least 4 measurements were performed per condition and the results were then averaged. The microtubule-stimulated activity of Eg5487H was obtained by subtracting background activity (measured with microtubules only in the absence of Eg5487H) from measurements containing Eg5487H and microtubules. The IC50 was determined by assuming non-competitive enzyme inhibition and fitting the theoretically expected dependence of the enzym activity on the inhibitor concentration to the experimental microtubule-stimulated ATPase activities. The equation used for the fit was v = vmax * IC50 / ([inhibitor] + IC50) + vres with v being the measured relative ATPase rate, vmax being the maximum ATPase rate and vres being a residual activity at high inhibitor concentration.

[3] = tested on: HeLa cells; assay: FACS cell cycle analysis of HeLa cells after 18 h inhibitor treatment; type: cell-based, human; conditions: for cells in G2/M: FACS (control 23%)
Method: (§1) Hela cells were cultured in DMEM medium supplemented with 10 % (v/v) FCS to 60 % confluency. The culture medium was then exchanged by fresh medium containing different inhibitor or DMSO and the cells placed at 37 °C in 5 % CO2 for 18 h. The final volume of inhibitor dissolved in DMSO in the medium was always equal to or less than 0.1 % (v/v)For wash out experiments, cells were treated as described above. After 18 h cells were washed with phosphate buffered saline (PBS), covered with fresh medium and cultured for another 24 h at 37 °C in 5 % CO2.
HeLa cells were incubated for 18 hours in medium supplemented with various concentrations of either of the three compounds, monastrol or DMSO. Cells were then fixed and analyzed by FACS and immunofluorescence.
(§2) For FACS analysis, cells were scraped off the culture plate after inhibitor treatment or after wash-out and collected by centrifugation in a Heraeus Megafuge 1.0R at 1200 rpm for 5 min. The cell pellet was washed once with 5 ml PBS and then resuspended in 0.5 ml PBS. The cells were fixed by addition of 4 ml 70 % (v/v) ethanol and incubation overnight at -20 °C. Fixed cells were centrifuges at 1200 rpm for 5 min, washed with 5 ml PBS, and resuspended in 1ml PI solution (10 µg/ml propidium iodide, 100 µg/ml RNAse A, 0.05 % Triton X100 in PBS). After 30 min at 37 °C in the dark, cells were analyzed by fluorescence-activated cell sorting (FACS).

[4] = tested on: HeLa cells; assay: Wash-out experiment in HeLa cells (18 h treatment, 24 h fresh medium); type: cell-based, human; conditions: 24 h in fresh medium
Method: as §1, §2
One useful characteristic of monastrol is that is non-toxic for the cells when applied transiently; once washed out cells resume mitosis. […]

[5] = 10 µM added to Xenopus egg extract
[6] = microtubule-stimulated ATPase activity, 40 nM Eg5487H, 4 µM microtubules, 1 mM MgATP, read-out: IC50

SMILES | bipolar spindle formation [1, 5] | IC50 [2, 6] [nM] | potency as inhibitor of Eg5 compared to monastrol [2] | cells in G2/M ([3]; 10 µM) [%] | bipolar spindle formation ([1]; 1 µM added to Xenopus egg extract) | IC50 [2] [nM] | cell cycle distribution ([3]; 0.1 µM, FACS) | cells in G2/M ([3]; 0.5 µM) [%] | cells in G2/M ([3]; 1 µM) [%] | toxicity for the cells when applied transiently [4] | cells in G2/M ([3]; 100 µM) [%]
O=C1CCCC2=C1C(c1cccc(O)c1)NC(=S)N2 (stereo not drawn) [Example 1, 4-(3-Hydroxyphenyl)-5-oxo-3,4,5,6,7,8-hexahydroquinazoline-2(1H)-thione] | inhibited bipolar spindle formation | 2000 | more than ten times more potent | 77 | – | – | – | – | – | – | –
CC1(C)CC(=O)C2=C(C1)NC(=S)NC2c1cccc(O)c1 (stereo not drawn) [Example 2, 7,7-Dimethyl-4-(3-hydroxyphenyl)-5-oxo-3,4,5,6,7,8-hexahydroquinazoline-2(1H)-thione] | – | – | more than 100 times | – | inhibited bipolar spindle formation | 200 | No cell cycle distribution abnormalities | 47 | 75 | – | –
Oc1cccc(C2NC(=S)NC3=C2C(O)CCC3)c1 (stereo not drawn) [Example 3, 4-(3-Hydroxyphenyl)-5-hydroxy-3,4,5,6,7,8-hexahydroquinazoline-2(1H)-thione] | inhibited bipolar spindle formation | 2000 | more than ten times more potent | 77 | – | – | – | – | – | – | –
CCOC(=O)C1=C(C)NC(=S)NC1c1cccc(O)c1 (stereo not drawn) [monastrol, 4-(3-hydroxyphenyl)-5-ethoxycarbonyl-6-methyl-3,4-dihydropyrimidin-2(1H), reference compound] | – | – | – | 31 | – | 30000 | – | – | – | non-toxic | 74
